Like-named read-outs stand apart in the source and are kept apart here.
How the values were obtained:
DGKα [1] = target: T1, DGKα (Homo sapiens (Human), UniProt P23743); test: biochemical; type: biochemical; conditions: liposome (LIPGLO) assay; read-out: DGKα LIPGLO IC50
human DGKζ = human DGKζ (Homo sapiens (Human), UniProt Q13574); test: biochemical; type: biochemical; conditions: liposome (LIPGLO) assay; read-out: DGKζ LIPGLO IC50
[2] = tested on: naïve human CD8 T cells (IFN-γ); test: Human CD8 T cells IFN-γ assay; type: cell-based; conditions: T-cell
Protocol: Assay 8: Human CD8 T Cells IFN-γ Assay
Frozen naïve human CD8 T cells were thawed in AIM-V media, incubated for 2 h in 37° C., and counted. The 384-well tissue culture plate was coated overnight at 4° C. with 20 μL anti-human CD3 at 0.05 μg/mL in PBS, which was removed off the plate before 40,000 cells per 40 microliters CD8 T cells with 0.1 μg/mL soluble anti-human CD28 were added to each well. The compounds were transferred using an Echo liquid handler to the cell plate immediately after the cells were plated. After 20 h incubation at 37° C. incubator, 3 microliters per well supernatants transferred into a new 384-well white assay plate for cytokine measurement.
Interferon-γ (IFN-γ) was quantitated using the AlphLISA kit (Cat #AL217) as described by the manufacturer manual (Perkin Elmer). The counts from each well were converted to IFN-γ concentration (pg/mL).

[3] = tested on: Human venous whole blood (IFN-γ); test: Human whole blood IFN-γ assay; type: cell-based
Protocol: Assay 10: Human Whole Blood IFN-γ Assay
Human venous whole blood (22.5 μL per well), obtained from healthy donors, was pre-treated with compounds for one hour at 37° C. in a humidified 95% air/5% CO2 incubator. The blood was stimulated with 2.5 μL anti-human CD3 and anti-CD28 mAb at a final concentration of 1 μg/mL each for 24 hours at 37° C. IFN-γ in the supernatants was measured using AlphLISA kit (Cat #AL217).

DGKα [4] = target: T1, DGKα; test: DGKα ADPGLO assay; type: biochemical
[5] = tested on: OT-1 CD8+ T cells with SIINFEKL-loaded MC38 tumor cells; test: Murine cytotoxic T lymphocyte assay (IFN-γ); type: cell-based, mouse; conditions: Mus musculus, MC-38; for EC50: murine cytotoxic T lymphocyte assay, read-out: msCTL; for IC50: murine cytotoxic T lymphocyte, IFN-γ, read-out: msCTL INFg IC50
Text: Assay 6: Murine Cytotoxic T Lymphocyte Assay
An antigen-specific cytolytic T-cell (CTL) assay was developed to evaluate functionally the ability of DGKα and DGKζ inhibitors to enhance effector T cell mediated tumor cell killing activity. CD8+ T-cells isolated from the OT-1 transgenic mouse recognize antigen presenting cells, MC38, that present the ovalbumin derived peptide […]. Recognition of the cognate antigen initiates the cytolytic activity of the OT-1 antigen-specific CD8+ T cells.
Functional CTL cells were generated as follows: OT-1 splenocytes from 8-12 week old mice were isolated and expanded in the presence of the […] peptide at 1 μg/mL and mIL2 at 10 U/mL. After three days, fresh media with […] was added. On day 5 of the expansion, the CD8+ T cells were isolated and ready for use. Activated CTL cells may be stored frozen for 6 months. Separately, one million MC38 tumor cells were pulsed with 1 μg/mL of […]-OVA peptide for 3 hours at 37° C. The cells were washed (3×) with fresh media to remove excess peptide. Finally, CTL cells that were pretreated with DGK inhibitors for 1 hour in a 96-well U bottom plate were combined with the antigen loaded MC38 tumor cells at a 1:10 ratio. The cells were then spun at 700 rpm for 5 min and placed in an incubator overnight at 37° C. After 24 hours, the supernatant was collected for analysis of IFN-γ cytokine levels by AlphaLisa purchased from Perkin Elmer.

naïve human CD8 T cells = test: CellTiter-Glo CD8 T cell proliferation assay; type: cell-based; conditions: Homo sapiens, read-out: CD8 GLO Normalized EC50
Summary of the method: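 Thawed naïve human CD8 T cells (20 k/well) were stimulated with plate-bound anti-CD3 (0.1 μg/mL coating) and 0.5 μg/ml soluble anti-CD28, with compounds added right after plating. After 72 h at 37° C, proliferation was read by CellTiter-Glo luminescence. The signal from stimulated cells was taken as background.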

Human DGKα(9-727) = Human DGKα(9-727) (Homo sapiens (Human), UniProt P23743); test: biochemical; conditions: liposome (LIPGLO) assay; Table A; read-out: DGKα LIPGLO IC50
full length human DGKζ = full length human DGKζ (Homo sapiens (Human), UniProt Q13574); test: In vitro DGK inhibition assay, Method B (DGKζ LIPGLO, extruded liposomes); type: biochemical; conditions: liposome (LIPGLO) assay; read-out: DGKζ LIPGLO IC50
[6] = tested on: human venous whole blood, CD8 positive population (pERK); test: DGK human whole blood pERK assay; type: cell-based; conditions: read-out: DGK HWB (human whole blood pERK), human whole blood, CD8 positive population, anti-CD3 stimulation, top concentration 20 μM
Summary of the method: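 Read-out is the pERK-positive fraction of CD8+ cells measured by flow cytometry. Donor venous blood (heparin) saw compound for one hour at 37° C before a 15-minute anti-CD3 challenge (1 μg/mL final) with cross-linking anti-mouse IgG.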

[7] = read-out: HuCD8 INFG Normalized EC50
[8] = human whole blood, anti-CD3 plus anti-CD28, 24 hours, read-out: INFg Whole Blood Normalized Agonist EC50
[9] = Homo sapiens, human whole blood IFN-γ, read-out: INFg Whole Blood
[10] = Homo sapiens, 24 h, human whole blood, anti-CD3 plus anti-CD28, 24 hours, read-out: INFg Whole Blood Normalized Agonist EC50

T1 sequence (P23743 whole entry, looked up): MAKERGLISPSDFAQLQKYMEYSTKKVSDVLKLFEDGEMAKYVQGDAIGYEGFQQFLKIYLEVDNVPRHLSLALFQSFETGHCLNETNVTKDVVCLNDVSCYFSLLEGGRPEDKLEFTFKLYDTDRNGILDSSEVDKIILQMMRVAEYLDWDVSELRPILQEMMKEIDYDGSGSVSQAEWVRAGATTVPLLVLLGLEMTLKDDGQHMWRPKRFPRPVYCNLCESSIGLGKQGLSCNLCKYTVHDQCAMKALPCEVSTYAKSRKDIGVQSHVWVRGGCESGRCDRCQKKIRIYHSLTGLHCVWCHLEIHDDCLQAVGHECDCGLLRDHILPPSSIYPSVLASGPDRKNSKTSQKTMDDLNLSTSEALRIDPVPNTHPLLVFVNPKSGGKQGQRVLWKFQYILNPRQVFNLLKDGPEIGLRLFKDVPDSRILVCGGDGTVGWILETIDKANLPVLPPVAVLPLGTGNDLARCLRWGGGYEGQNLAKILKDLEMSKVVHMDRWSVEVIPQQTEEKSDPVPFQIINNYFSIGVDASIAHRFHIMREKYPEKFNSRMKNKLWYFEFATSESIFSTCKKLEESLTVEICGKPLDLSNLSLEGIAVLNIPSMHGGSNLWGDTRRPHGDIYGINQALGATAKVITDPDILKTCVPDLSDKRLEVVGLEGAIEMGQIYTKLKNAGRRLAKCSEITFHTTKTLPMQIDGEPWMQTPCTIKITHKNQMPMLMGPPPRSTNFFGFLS
human DGKζ, sequence (Q13574 whole entry, looked up): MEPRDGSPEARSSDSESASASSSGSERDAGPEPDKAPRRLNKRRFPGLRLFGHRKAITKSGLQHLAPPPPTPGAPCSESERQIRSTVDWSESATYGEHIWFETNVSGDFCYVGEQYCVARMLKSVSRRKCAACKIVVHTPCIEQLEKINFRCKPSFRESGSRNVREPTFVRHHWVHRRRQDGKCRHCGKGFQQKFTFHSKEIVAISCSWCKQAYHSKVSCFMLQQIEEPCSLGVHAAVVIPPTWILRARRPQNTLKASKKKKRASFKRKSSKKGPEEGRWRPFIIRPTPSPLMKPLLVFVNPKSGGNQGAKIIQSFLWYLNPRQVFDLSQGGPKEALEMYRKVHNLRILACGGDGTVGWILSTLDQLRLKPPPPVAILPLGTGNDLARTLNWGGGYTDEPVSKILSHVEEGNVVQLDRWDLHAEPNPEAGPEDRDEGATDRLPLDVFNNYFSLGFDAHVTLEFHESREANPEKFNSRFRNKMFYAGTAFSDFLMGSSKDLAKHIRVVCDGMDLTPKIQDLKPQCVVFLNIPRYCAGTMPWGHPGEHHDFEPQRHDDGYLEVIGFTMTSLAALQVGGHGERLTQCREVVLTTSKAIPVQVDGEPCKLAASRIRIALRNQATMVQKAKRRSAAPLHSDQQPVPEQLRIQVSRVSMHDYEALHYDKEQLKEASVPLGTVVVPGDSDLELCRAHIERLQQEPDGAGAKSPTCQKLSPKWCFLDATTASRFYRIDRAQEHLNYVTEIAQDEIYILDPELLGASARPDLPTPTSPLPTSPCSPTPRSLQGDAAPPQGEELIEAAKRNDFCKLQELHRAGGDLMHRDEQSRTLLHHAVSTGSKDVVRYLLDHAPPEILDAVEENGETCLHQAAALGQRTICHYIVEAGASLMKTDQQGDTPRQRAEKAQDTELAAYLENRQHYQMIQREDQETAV
Human DGKα(9-727), sequence (P23743 whole entry, looked up): as the sequence (P23743 whole entry, looked up) above
full length human DGKζ, sequence (Q13574 whole entry, looked up): as the sequence (Q13574 whole entry, looked up) above

CCC(C)(C)c1ccc(O[C@@H]2CCN(c3cc(=O)n(C)c4ccc(C#N)nc34)C[C@H]2C)cc1 (single isomer, unassigned) [Example 83]
IC50 (DGKα [1]): 280 nM | IC50 (human DGKζ): 5.8 µM | EC50 [2, 7]: 2.5 nM | EC50 [3, 8]: 360 nM

C[C@@H]1CN(c2cc(=O)n(C)c3ccc(C#N)nc23)CC[C@H]1Oc1cccc(C2CC2)c1 (single isomer, unassigned) [Example 92]
IC50 (DGKα [1]): 28 nM | IC50 (human DGKζ): 16 µM | EC50 [3, 8]: 910 nM | IC50 (DGKα [4]): 0.51 nM

CC[C@@H]1CN(c2cc(=O)n(C)c3ccc(C#N)nc23)CC[C@H]1Oc1cccc(C(C)C)c1 (single isomer, unassigned) [Example 138]
IC50 (DGKα [1]): 24 nM | IC50 (human DGKζ): 0.8 µM | EC50 ([3]; read-out: INFg Whole Blood Normalized Agonist EC50, human whole blood, anti-CD3 plus anti-CD28, 24 hours): 340 nM | IC50 (DGKα [4]): 5.2 nM

COc1cc(-c2c(N3CCC(Oc4ccc(OC(F)(F)F)cc4)CC3)c3nc(C#N)ccc3n(C)c2=O)ccn1 [Example 241, 7-(2-methoxypyridin-4-yl)-5-methyl-6-oxo-8-(4-(4-(trifluoromethoxy)phenoxy)piperidin-1-yl)-5,6-dihydro-1,5-naphthyridine-2-carbonitrile]
EC50 [5]: 570 nM | EC50 ([2]; read-out: HuCD8 INFG): 1300 nM | EC50 [3, 9]: 10000 nM

Cn1c(=O)c(F)c(N2CCC(Oc3ccc(OC(F)(F)F)cc3)CC2)c2nc(C#N)ccc21 [Example 237, 7-fluoro-5-methyl-6-oxo-8-(4-(4-(trifluoromethoxy)phenoxy)piperidin-1-yl)-5,6-dihydro-1,5-naphthyridine-2-carbonitrile]
EC50 [5]: 200 nM | EC50 ([2]; read-out: HuCD8 INFG): 340 nM | EC50 [3, 9]: 3300 nM

Cc1ccc(OC2CCN(c3c(C#N)c(=O)n(C)c4ccc(Cl)nc34)CC2)cc1 [Example 21, 6-chloro-1-methyl-2-oxo-4-(4-(p-tolyloxy)piperidin-1-yl)-1,2-dihydro-1,5-naphthyridine-3-carbonitrile]
IC50 (DGKα [1]): 770 nM | IC50 (human DGKζ): 7.8 µM | EC50 (naïve human CD8 T cells): 92 nM | IC50 [5]: 1700 nM | EC50 [2, 7]: 160 nM

Cn1c(=O)cc(N2CCC(Oc3ccc(OC(F)(F)F)cc3)CC2)c2nc(C#N)ccc21 [Example 52, 5-methyl-6-oxo-8-(4-(4-(trifluoromethoxy)phenoxy)piperidin-1-yl)-5,6-dihydro-1,5-naphthyridine-2-carbonitrile]
IC50 (DGKα [1]): 800 nM | IC50 (human DGKζ): 3.8 µM | IC50 [5]: 150 nM | EC50 [2, 7]: 1000 nM | EC50 [3, 10]: 2700 nM

Cn1c(=O)c(C#N)c(N2CCC(Oc3ccc(C(C)(C)C)cc3)CC2)c2nc(Cl)ccc21 [Example 15, 4-(4-(4-(tert-butyl)phenoxy)piperidin-1-yl)-6-chloro-1-methyl-2-oxo-1,2-dihydro-1,5-naphthyridine-3-carbonitrile]
IC50 (DGKα [1]): 510 nM | IC50 (human DGKζ): 7.4 µM | EC50 (naïve human CD8 T cells): 320 nM | IC50 [5]: 290 nM | EC50 [2, 7]: 870 nM | EC50 [3, 10]: 7600 nM

C[C@@H]1CN(c2cc(=O)n(C)c3ccc(C#N)nc23)CC[C@H]1Oc1ccc(OC(C)(C)C)cc1 [Example 85, 8-((3R,4R)-4-(4-(tert-butoxy)phenoxy)-3-methylpiperidin-1-yl)-5-methyl-6-oxo-5,6-dihydro-1,5-naphthyridine-2-carbonitrile]
IC50 (DGKα [1]): 80 nM | EC50 [2, 7]: 610 nM | EC50 [3, 8]: 2200 nM

Cn1c(=O)c(Cl)c(N2CCC(Oc3ccc(OC(F)(F)F)cc3)CC2)c2nc(C#N)ccc21 [Example 238, 7-chloro-5-methyl-6-oxo-8-(4-(4-(trifluoromethoxy)phenoxy)piperidin-1-yl)-5,6-dihydro-1,5-naphthyridine-2-carbonitrile]
EC50 ([2]; read-out: HuCD8 INFG): 160 nM

Cn1c(=O)c(C#N)c(N2CCC(Oc3ccccc3Cl)CC2)c2nc(Cl)ccc21 [Example 18, 6-chloro-4-(4-(2-chlorophenoxy)piperidin-1-yl)-1-methyl-2-oxo-1,2-dihydro-1,5-naphthyridine-3-carbonitrile]
IC50 (DGKα [1]): 2600 nM | IC50 (human DGKζ): 13 µM | EC50 (naïve human CD8 T cells): 79 nM | IC50 [5]: 1500 nM | EC50 [2, 7]: 190 nM | EC50 [3, 10]: 10000 nM

COc1ccc(-c2c(N3CCC(Oc4ccc(OC(F)(F)F)cc4)CC3)c3nc(C#N)ccc3n(C)c2=O)cn1 [Example 240, 7-(6-methoxypyridin-3-yl)-5-methyl-6-oxo-8-(4-(4-(trifluoromethoxy)phenoxy)piperidin-1-yl)-5,6-dihydro-1,5-naphthyridine-2-carbonitrile]
EC50 [5]: 580 nM | EC50 ([2]; read-out: HuCD8 INFG): 1000 nM | EC50 [3, 9]: 5300 nM

Cn1c(=O)c(Br)c(N2CCC(Oc3ccc(OC(F)(F)F)cc3)CC2)c2nc(C#N)ccc21 [Example 239, 7-bromo-5-methyl-6-oxo-8-(4-(4-(trifluoromethoxy)phenoxy)piperidin-1-yl)-5,6-dihydro-1,5-naphthyridine-2-carbonitrile]
EC50 ([2]; read-out: HuCD8 INFG): 820 nM

COCCO[C@@H]1CN(c2cc(=O)n(C)c3ccc(C#N)nc23)CC[C@H]1Oc1cccc(C(F)(F)F)c1 [Example 389, 8-((3R,4R)-3-(2-methoxyethoxy)-4-(3-(trifluoromethyl)phenoxy)piperidin-1-yl)-5-methyl-6-oxo-5,6-dihydro-1,5-naphthyridine-2-carbonitrile]
IC50 (Human DGKα(9-727)): 2.5 µM | IC50 (full length human DGKζ): 0.27 µM | EC50 [6]: 3 µM

CN(C)CCO[C@@H]1CN(c2cc(=O)n(C)c3ccc(C#N)nc23)CC[C@H]1Oc1cccc(C(F)(F)F)c1 [Example 386, 8-((3R,4R)-3-(2-(dimethylamino)ethoxy)-4-(3-(trifluoromethyl)phenoxy)piperidin-1-yl)-5-methyl-6-oxo-5,6-dihydro-1,5-naphthyridine-2-carbonitrile]
IC50 (Human DGKα(9-727)): 130 µM | IC50 (full length human DGKζ): 42 µM | EC50 ([6]; Homo sapiens, CD8 positive): 20 µM

Reference: patent US11964973B2 (priority 2019, dated 2024)
